Results published in US20130337564A1, “Treatment of Pluripotent Cells” (Janssen Biotech, Inc., priority 2012, published 2013).

Legend:
[1] = MTS viability (toxicity) assay of cells expressing pluripotency markers; type: cell-based, human; parameters: Raw data (duplicate), first replicate / Average: unit not given here; conditions: human, MTS on day 4, relative to Activin A + Wnt3a positive control, read-out: % Control (percentage viability of control); for viability at 4 days, 2.5 μM: cmpd conc 2.5 μM; for viability at 4 days, 5 μM: cmpd conc 5 μM; for viability at 4 days, 10 μM: cmpd conc 10 μM
How it was run: (§1)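 A GSK-3B inhibitor library was screened for toxicity to pluripotency-marker-expressing cells. Compound was given in DMEM:F12 with 0.5% FCS and 100 ng/ml Activin A for two days, then replaced by medium with 2% FCS and Activin A. On day 4, MTS absorbance at 490 nm gave viability as percent of Activin A plus Wnt3a control wells.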

[2] = test system: cells expressing pluripotency markers derived from human embryonic stem cells; test: as above; type: cell-based; parameters: Raw data (duplicate), first replicate / Average: unit not given here; conditions: for viability at 10 µM: Homo sapiens, Embryonic stem cell, viability of cells expressing pluripotency markers, relative to control; for Average of raw data (duplicate), optical density at 490 nm: MTS on day 4
How it was run: as §1

[3] = test system: Sox17 expression in human embryonic stem cells (H9 line); test: High content screening assay: Sox17 protein expression (differentiation); type: cell-based; conditions: for fold induction at 10 µM: Homo sapiens, Embryonic stem cell, 10 μM test compound with 100 ng/ml activin A on days 1-2, H9, total intensity by IN Cell Analyzer, strong and moderate hits, read-out: SOX17 Expression, Fold over Wnt 3a/AA control
How it was run: (§2)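 H9 hESCs on MATRIGEL treated days 1-2 with 10 μM compound in DMEM:F12, 0.5% FCS, 100 ng/ml activin A; days 3-4 with 2% FCS plus activin A without compound. Fixed cells immunostained for Sox17 or HNF-3beta with Draq5 nuclear counterstain. Cell number and staining intensity quantified by high-content imaging, 12 fields/well.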

[4] = test system: HNF-3beta expression in human embryonic stem cells (H9 line); test: High content screening assay: HNF-3beta protein expression (differentiation); type: cell-based
How it was run: as §2

[5] = MTS viability assay raw reading, replicate 1
[6] = MTS viability assay raw reading, replicate 2
[7] = average of duplicate MTS raw readings

| Compound | viability at 4 days, 2.5 μM [1] | viability at 4 days, 5 μM [1] | viability at 4 days, 10 μM [1] | viability at 10 µM [2] | Raw data (duplicate), first replicate [2, 5] | Raw data (duplicate), second replicate [2, 6] | Average [2, 7] | Average of raw data (duplicate), optical density at 490 nm ([2]; cmpd conc 2.5 μM) | Average of raw data (duplicate), optical density at 490 nm ([2]; cmpd conc 5 μM) | Average of raw data (duplicate), optical density at 490 nm ([2]; cmpd conc 10 μM) | SOX-17 Expression Total Intensity [3] | HNF-3b Expression Total Intensity [4] | fold induction at 10 µM [3] | Average ([2]; MTS viability readout, average of duplicate raw data) | Raw data (duplicate), first replicate ([2]; MTS viability readout, raw value of replicate 1) | Raw data (duplicate), second replicate ([2]; MTS viability readout, raw value of replicate 2) | fold induction at 10 µM ([4]; Homo sapiens, Embryonic stem cell, 10 μM test compound with 100 ng/ml activin A on days 1-2, H9, total intensity by IN Cell Analyzer, strong and moderate hits, read-out: HNF3β Expression, Fold over Wnt 3a/AA control) |
| --- | --- | --- | --- | --- | --- | --- | --- | --- | --- | --- | --- | --- | --- | --- | --- | --- | --- |
| O=C1NC(=O)C(c2cn(CCOCCOCCNC3CCCc4ccccc43)c3ccccc23)=C1c1cn(CCNC2CCCc3ccccc32)c2ccccc12 (stereo not drawn) [Compound 144, 3-{1-[2-(1,2,3,4-Tetrahydronaphthalen-1-ylamino)ethyl]-1H-indol-3-yl}-4-(1-{2-[(2-{[2-(1,2,3,4-tetrahydronaphthalen-1-ylamino)ethyl]oxy}ethyl)oxy]ethyl}-1H-indol-3-yl)-1H-pyrrole-2,5-dione] | 23.9% | 2.5% | 2.4% | 106% | 0.840 | 0.832 | 0.836 | 0.2898 | 0.1473 | 0.1464 | 339840000 | 231745000 |  |  |  |  |  |
| O=C1NC(=O)C2=C1Nc1cccc(c1)OCCC/C=C\CCCOc1cccc2c1 [Compound 233, (11Z)-8,9,10,13,14,15-Hexahydro-2,6:17,21-di(metheno)pyrrolo[3,4-h][1,15,7]dioxazacyclotricosine-22,24(1H,23H)-dione] | 41.6% | 0% | 1.5% | 70.9% | 0.608 | 0.590 | 0.599 | 0.4267 | 0.1283 | 0.1391 | 327055000 | 109160000 |  |  |  |  |  |
| O=C1NC(=O)C(c2nn(CCO)c3ccccc23)=C1c1cn(-c2cncnc2)c2ccccc12 [Compound 226, 3-[1-(2-Hydroxyethyl)-1H-indazol-3-yl]-4-(1-pyrimidin-5-yl-1H-indol-3-yl)-1H-pyrrole-2,5-dione] | 86.3% | 86.7% | 78.9% | 83.1% | 0.683 | 0.688 | 0.686 | 0.7474 | 0.7506 | 0.6945 | 572520000 | 329425000 | 0.589 |  |  |  |  |
| COC(=O)c1cncc(-n2cc(C3=C(c4nn(CCO)c5ccccc45)C(=O)NC3=O)c3cc(Cl)ccc32)c1 [Compound 150, Methyl 5-(5-chloro-3-{4-[1-(2-hydroxyethyl)-1H-indazol-3-yl]-2,5-dioxo-2,5-dihydro-1H-pyrrol-3-yl}-1H-indol-1-yl)pyridine-3-carboxylate] | 94.8% | 84.9% | 14.3% | 81.7% |  |  |  | 0.7630 | 0.6972 | 0.2259 | 351070000 | 288075000 |  | 0.673 | 0.668 | 0.678 |  |
| O=C1NC(=O)C(c2nn(CCCO)c3ccccc23)=C1c1cn(-c2cccnc2)c2ccc(Cl)cc12 [Compound 52, 3-(5-Chloro-1-pyridin-3-yl-1H-indol-3-yl)-4-[1-(3-hydroxypropyl)-1H-indazol-3-yl]-1H-pyrrole-2,5-dione] | 92% | 40.1% | 2.3% | 110% | 0.911 | 0.884 | 0.898 | 0.7886 | 0.4156 | 0.1448 |  |  |  |  |  |  |  |
| CN(C)CCCn1c2c(c3ccccc31)C1=C(C(=O)NC1=O)N(c1cccc(Cl)c1)C2 [Compound 101, 4-(3-Chlorophenyl)-6-[3-(dimethylamino)propyl]-5,6-dihydropyrrolo[3′,4′:5,6]pyrido[3,4-b]indole-1,3(2H,4H)-dione] | 100% | 95.9% | 1.3% | 100% | 0.791 | 0.768 | 0.779 | 0.7987 | 0.7702 | 0.1390 |  |  |  |  |  |  |  |
| COCCCn1cc(C2=C(c3ccccc3O)C(=O)NC2=O)c2cccnc21 [Compound 22, 3-(2-Hydroxyphenyl)-4-{1-[3-(methyloxy)propyl]-1H-pyrrolo[2,3-b]pyridin-3-yl}-1H-pyrrole-2,5-dione] |  |  |  | 108% | 0.900 | 0.877 | 0.888 |  |  |  | 2188847 | 13689421 |  |  |  |  |  |
| O=C1NC(=O)C(c2cn(CCOCCOCCO)c3ccccc23)=C1c1cn(CCO)c2ccccc12 [Compound 110, 3-[1-(2-Hydroxyethyl)-1H-indol-3-yl]-4-{1-[2-({2-[(2-hydroxyethyl)oxy]ethyl}oxy)ethyl]-1H-indol-3-yl}-1H-pyrrole-2,5-dione] | 104% | 98.5% | 81.6% | 112% | 0.948 | 0.764 | 0.856 | 0.8272 | 0.7879 | 0.6747 |  |  |  |  |  |  |  |
| COc1ccccc1C1=C(c2cn(-c3cccnc3)c3ccccc23)C(=O)NC1=O [Compound 216, 3-[2-(Methyloxy)phenyl]-4-(1-pyridin-3-yl-1H-indol-3-yl)-1H-pyrrole-2,5-dione] |  |  |  | 92.2% | 0.768 | 0.724 | 0.746 |  |  |  | 252690000 | 306520000 |  |  |  |  |  |
| Cn1cc(C2=C(c3nn(CCCn4ccnn4)c4ccccc34)C(=O)NC2=O)c2cc(Cl)ccc21 [Compound 232, 3-(5-Chloro-1-methyl-1H-indol-3-yl)-4-{1-[3-(1H-1,2,3-triazol-1-yl)propyl]-1H-indazol-3-yl}-1H-pyrrole-2,5-dione] |  |  |  | 87.3% | 0.720 | 0.697 | 0.709 |  |  |  | 1045395000 | 854325000 | 1.07 |  |  |  | 0.771 |
